Data published in patent US6015801A, “Method for inhibiting bone resorption” (Merck & Co., Inc., priority 1998, dated 2000).
Where two headings read alike, the source gives them in different places.

Columns and labels:
canine esophagus = test: Esophageal irritation potential in a dog model (infusion into esophagus, histopathology); settings: for Esophageal irritation potential: low dosages on consecutive days (Groups 7 and 8)
Experimental: The esophageal irritation potential of the bisphosphonates is evaluated using a dog model.
The following solutions are prepared:
(1) simulated gastric juice (pH about 2), i.e. the control solution.
(5) simulated gastric juice (pH about 2) containing about 0.20 mg/mL of risedronate sodium on a risedronic acid active basis.
(6) simulated gastric juice (pH about 2) containing about 4.0 mg/mL of tiludronate disodium on a tiludronic acid active basis.
The pH of the resulting solution is measured and if necessary is adjusted to about 2 using 1.0 M HCl (aqueous) or 1.0 M NaOH (aqueous).
The animals used in the experiments are anesthetized and administered about 50 mL of the appropriate solution over about 30 minutes by infusion into the esophagus using an infusion pump and a rubber catheter. The following treatment experiments are run:
Group 1: This control group contains four animals. Each animal is administered a dosage of about 50 mL of simulated gastric juice [solution (1)] on each of five consecutive days. The animals are sacrificed immediately after the last dose is administered. […]
Group 7: This group contains eight animals. Each animal is administered a dosage of about 50 mL of simulated gastric juice containing about 0.20 mg/mL of risedronate [solution (5)] on each of five consecutive days. The animals are sacrificed immediately after the last dose is administered.
Group 8: This group contains four animals. Each animal is administered a dosage of about 50 mL of simulated gastric juice containing about 4.0 mg/mL of tiludronate [solution (6)] on each of five consecutive days. The animals are sacrificed immediately after the last dose is administered.
The esophagus from each sacrificed animal is removed and prepared for histopathology using standard techniques by embedding the tissue in paraffin, staining with hematoxylin and eosin. The sections are examined microscopically.

esophagus = settings: oral; literature; cited from earlier work
bone [1] = settings: cited from earlier work
bone [2] = settings: Mortensen et al. 1995; cited from earlier work
[3] = 0.20 mg/mL alendronate, 50 mL, 1x daily for 5 days, sacrifice immediately after last dosing (Group 2, n = 4), monosodium trihydrate
[4] = 0.40 mg/mL alendronate, 50 mL, 2x weekly for 4 weeks (Group 6, n = 6), sacrifice about four days after last dose, immediately (Table 1), monosodium trihydrate
[5] = 0.80 mg/mL alendronate, 50 mL, 1x weekly for a total of 4 doses, sacrifice 7 days after last dosing (Group 5, n = 6), monosodium trihydrate
[6] = 0.80 mg/mL alendronate, 50 mL, single dose, sacrifice 24 hours after dosing (Group 3, n = 5), monosodium trihydrate
[7] = 0.80 mg/mL alendronate, 50 mL, single dose, sacrifice 7 days after dosing (Group 4, n = 5), monosodium trihydrate
[8] = 0.20 mg/mL risedronate, 50 mL, 1x daily for 5 days, sacrifice immediately after last dosing (Group 7, n = 8)

NCCCC(O)(P(=O)(O)O)P(=O)(O)O [Alendronate, 4-amino-1-hydroxybutylidene-1,1-bisphosphonic acid monosodium trihydrate]
Histopathology: esophageal epithelial surface (canine esophagus; [3]): deep ulceration of the epithelial surface
Histopathology: submucosal inflammation and vacuolation (canine esophagus; [3]): marked submucosal inflammation and vacuolation
Histopathology: esophageal epithelial surface (canine esophagus; [4]): deep ulceration of the epithelial surface
Histopathology: submucosal inflammation and vacuolation (canine esophagus; [4]): marked submucosal inflammation and vacuolation
Histopathology: vacuolation (canine esophagus; 0.80 mg/mL alendronate, 50 mL, 1x weekly for a total of 4 doses, sacrifice 7 days after last dosing (Group 5, n = 6)): no
Histopathology: esophageal epithelium (canine esophagus; [5]): normal with an intact epithelium
Histopathology: submucosal inflammation (canine esophagus; [5]): absence of inflammatory cells in the submucosa and no
Histopathology: esophageal epithelial surface (canine esophagus; [6]): intact epithelial surface
Histopathology: submucosal inflammation and vacuolation (canine esophagus; [6]): very slight submucosal inflammation and vacuolation
Histopathology: esophageal epithelium (canine esophagus; [7]): intact epithelium
Histopathology: vacuolation (canine esophagus; [7]): no vacuolation and no
Adverse esophageal effects associated with use (esophagus): esophagitis and/or esophageal ulcers

CC(O)(P(=O)(O)O)P(=O)(O)O [Etidronate, 1-hydroxyethane-1,1-diphosphonic acid]
Effect on bone mineralization (bone [1]; at doses used clinically): impairs mineralization
Effect on bone mineralization (bone [1]; given daily for more than several days): decline in bone mineralization

NCCC(O)(P(=O)(O)O)P(=O)(O)O [Pamidronate, 3-amino-1-hydroxypropylidene-1,1-bisphosphonic acid]
Adverse esophageal effects associated with use (esophagus): esophageal ulcers

O=P(O)(O)C(O)(Cc1cccnc1)P(=O)(O)O [Risedronate, 1-hydroxy-2-(3-pyridinyl)-ethylidene-1,1-bisphosphonic acid]
Histopathology: animals with deep ulceration of epithelial surface (canine esophagus; [8]): 4 of 8 animals
Histopathology: esophageal epithelial surface (canine esophagus; [8]): deep ulceration of the epithelial surface
Histopathology: submucosal inflammation and vacuolation (canine esophagus; [8]): marked submucosal inflammation and vacuolation
Esophageal irritation potential (canine esophagus): high
Antiresorptive bone effect, cyclic versus continuous daily dosing (bone [2]): less effective than continuous daily dosing

O=P(O)(O)C(Sc1ccc(Cl)cc1)P(=O)(O)O [Tiludronate, (4-chlorophenyl)thiomethane-1,1-disphosphonic acid]
Esophageal irritation potential (canine esophagus): high
